Test results reported in BigSolDB 2.1.

O.O=c1c(O)c(-c2ccc(O)cc2)oc2cc(O)cc(O)c12
solubility (mole fraction)
Conditions	283.15 K	288.15 K	293.15 K	298.15 K	303.15 K	308.15 K	313.15 K	318.15 K	318.25 K	323.15 K
in ethanol	0.00668	0.00812	0.00993	0.0121	0.0146	0.0178	0.0212	0.025	–	0.0295
in isopropanol	0.00356	0.00502	0.00676	0.00907	0.0126	0.0171	0.0222	–	0.0281	0.036
in n-butanol	0.00626	0.00772	0.00935	0.0113	0.0137	0.0164	0.0197	0.0236	–	0.028
in n-propanol	0.00621	0.00727	0.00861	0.0103	0.0121	0.014	0.0162	0.0188	–	0.0217
in sec-butanol	0.00599	0.00758	0.00926	0.0114	0.0138	0.0164	0.0196	0.0236	–	0.0285
